According to BindingDB's records for patent US20260014125 (Haihe Biopharma, 2026):

biological target: S-adenosylmethionine synthase isoform type-2 (Homo sapiens, UniProt P31153); test: Enzymatic Activity of MAT2A
Description: 1. 1×Assaybuffer (buffer composition: Tris, KCl, MgCl2, BSA, Brij35, and EDTA; the solvent was ultrapure water) was prepared. MAT2A his-tag enzyme solution (containing 1.3 μL of MAT2A enzyme and 998.7 μL of 1×Assaybuffer per 1000 μL) and substrate mixed solution (containing 5 μL of ATP, 1.3 μL of L-methionine, and 993.7 μL of 1×Assaybuffer per 1000 μL) were prepared using 1×AssayBuffer.2. Preparation of compound concentration gradient: The test compound was tested with a starting concentration of 10 μM, and 10 […] concentrations were set according to a 3-fold dilution. Specifically, firstly, the compound was diluted into 10 different concentrations of series solutions in a 384 well plate (with final detection concentrations of 10, 3.33, 1.11, 0.37, 0.123, 0.041, 0.0137, 0.0046, 0.0015, and 0.0005 μM), and then 250 nL of the above series solutions was transferred to the 384 well reaction plate using an ultrasonic pipetting system Echo550 for later use. 250 nL of 100% DMSO was added into a negative control well and a positive control well, respectively. Double well test.3. 15 μL of MAT2A his-tag enzyme solution was added into both the compound well and the positive control well; and 15 μL of 1×Assaybuffer was added into the negative control well.4. The 384 well plate reaction plate was centrifuged at 1000 rpm for 60 seconds, shaken, mixed well, and incubated for 15 minutes. 10 μL of substrate mixed solution was added into each experimental well of the 384 well reaction plate to initiate the reaction.5. The 384 well reaction plate was centrifuged at 1000 rpm for 60 seconds, shaken, mixed well, and incubated for 150 minutes.6. 50 μL of enzyme reaction termination solution Biomol was added into all experimental wells of the 384 well reaction plate to terminate the reaction, centrifuged at 1000 rpm for 60 seconds, and incubated for 15 minutes. OD620 was Data analysis: the inhibition rate (%) of the compound was calculated and fitted to obtain the IC50 of the tested compound.

Chain of S-adenosylmethionine synthase isoform type-2 (P31153 whole entry, canonical isoform): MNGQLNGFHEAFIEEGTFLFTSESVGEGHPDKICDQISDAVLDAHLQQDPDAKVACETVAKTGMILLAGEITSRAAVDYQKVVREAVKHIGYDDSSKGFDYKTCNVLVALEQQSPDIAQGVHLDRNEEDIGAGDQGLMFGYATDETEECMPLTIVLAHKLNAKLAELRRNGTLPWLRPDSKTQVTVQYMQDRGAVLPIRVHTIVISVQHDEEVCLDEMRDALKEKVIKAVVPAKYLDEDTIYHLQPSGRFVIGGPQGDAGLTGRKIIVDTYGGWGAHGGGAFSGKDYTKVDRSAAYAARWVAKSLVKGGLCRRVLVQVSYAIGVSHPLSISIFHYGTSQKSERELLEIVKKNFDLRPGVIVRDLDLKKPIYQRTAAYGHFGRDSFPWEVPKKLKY

IC50 | SMILES
0.0159 µM | CCOc1c(-c2ccc(OC(F)F)cc2)c(=O)n(-c2ccc3nccn3c2)c2[nH]ncc12 [US20260014125, Compound 24]
0.0098 µM | CCOc1c(-c2ccc(OC(F)F)cc2)c(=O)n(-c2ccn3nccc3c2)c2[nH]ncc12 [US20260014125, Compound 23]
0.014 µM | CCOc1c(-c2ccc(OC(F)F)cc2)c(=O)n(-c2ccc3ncnn3c2)c2[nH]ncc12 [US20260014125, Compound 25]
0.0083 µM | CCOc1c(-c2ccc(OC(F)F)cc2)c(=O)n(-c2ccc3nn(CCOC)cc3c2)c2[nH]ncc12 [US20260014125, Compound 21]
